{"source": "patent US20180161386A1", "about": "“PHARMACEUTICAL COMPOSITION FOR TREATMENT OF DEPRESSION AND PREPARATION METHOD THEREOF” (THISHERB HEALTH PTY LTD, priority 2015, published 2018)", "key": {"mice [1]": {"tested_on": "mice", "experiment": "mouse-tail suspension test", "format": "in vivo", "source_text": "(§1) 1.1 Drug testing and reagents: The capsules pharmaceutical compositions for the treatment of depression in form of obtained in Example 2 compared with fluoxetine hydrochloride. 1.2 Animals: 20 male and 20 female mice provided by the Experimental Animal Center; average body mass of 18-22 g. 1.3 Instruments: Mouse-tail suspension device (a wooden board of about 1 meter in length, fixed onto a desktop with a horizontal distance of about 15 cm), swimming model device (a glass tank with a height of 30 cm, a diameter of 14 cm, a water depth of 10 cm, and temperature of 25° C.), and homemade open box. 1.4 Grouping: The mice were fed for one week, during which time the mice feed and drink freely. The mice were randomly divided into four groups of control group, depression capsule low-dose group (hereinafter referred to as the low-dose group), depression capsule high-dose group (hereinafter referred to as the high-dose group), the positive groups, 10 mice per group. […]\nThe mouse was suspended by its tail so that the tail was adhered (1 cm from the tail end of the mouse) to the horizontal plank of wooden board by tape with its head about 5 cm above the desktop. […] The test was performed in 1 h after last drug administration and the time of the mouse being immobile within last 4 min for 6 min period was recorded."}, "mice [2]": {"tested_on": "mice", "experiment": "mouse forced swimming test", "format": "in vivo", "source_text": "1.1 Drug testing and reagents: The capsules pharmaceutical compositions for the treatment of depression in form of obtained in Example 2 compared with fluoxetine hydrochloride. 1.2 Animals: 20 male and 20 female mice provided by the Experimental Animal Center; average body mass of 18-22 g. 1.3 Instruments: Mouse-tail suspension device (a wooden board of about 1 meter in length, fixed onto a desktop with a horizontal distance of about 15 cm), swimming model device (a glass tank with a height of 30 cm, a diameter of 14 cm, a water depth of 10 cm, and temperature of 25° C.), and homemade open box. 1.4 Grouping: The mice were fed for one week, during which time the mice feed and drink freely. The mice were randomly divided into four groups of control group, depression capsule low-dose group (hereinafter referred to as the low-dose group), depression capsule high-dose group (hereinafter referred to as the high-dose group), the positive groups, 10 mice per group. 1.5 Drug administration: The control group was given saline daily at 0.2 ml/10 g; the positive control group was given fluoxetine hydrochloride 2.4 mg/kg; the low-dose group was given depression capsules 1.05 g/kg; and the high-dose group was given depression capsules 4.20 g/kg. The route of administration was directly into the stomach.\n1.6.2 Mouse forced swimming test: Refer to method by Prosolt et al. […]"}, "mice [3]": {"tested_on": "mice", "experiment": "opening test (independent activity, open box)", "format": "in vivo, mouse", "source_text": "as §1\nA wooden box was provided with 36 cm×36 cm×27 cm, the bottom of which is divided into 25 squares. The test was performed in 1 h after last drug administration, and the number of the mouse crossing the grids and vertical climbing within last 3 min for 5 min period was recorded."}, "[4]": {"details": "positive group 2.4 mg/kg, P<0.01"}}, "note": "Structures can show the parent of a compound that is named as a salt."}
{"smiles": "CNCCC(Oc1ccc(C(F)(F)F)cc1)c1ccccc1", "note": "(stereo not drawn) [fluoxetine hydrochloride]", "values": [{"measurement": "Immobile time in the mouse-tail suspension test", "setting": "mice [1]; mice, positive control group 0.0024 g/kg (2.4 mg/kg), directly into the stomach, 1 h after last administration, last 4 min of 6 min, x ± s, n = 10", "result": 73, "unit": "s"}, {"measurement": "effect on immobile time in mouse-tail suspension test compared with the control group", "setting": "mice [1]; [4]", "result": "highly significant difference"}, {"measurement": "Immobile time in mouse forced swimming test", "setting": "mice [2]; mice, positive control group 0.0024 g/kg (2.4 mg/kg), directly into the stomach, 1 h after last administration, last 4 min of 6 min, water 25° C., x ± s, n = 10", "result": 83.5, "unit": "s"}, {"measurement": "effect on immobile time in mouse forced swimming test compared with the control group", "setting": "mice [2]; [4]", "result": "highly significant difference"}, {"measurement": "the number of squares crossed by mouse", "setting": "mice [3]; mice, positive control group 0.0024 g/kg (2.4 mg/kg), directly into the stomach, 1 h after last administration, last 3 min of 5 min, ±s, n = 10", "result": "43.9 ± 13.3"}, {"measurement": "effect on independent activity in the opening test compared with the control group", "setting": "mice [3]; positive group 2.4 mg/kg, P>0.05", "result": "no significant difference"}]}
